Article PMC8831520, “Small molecule SWELL1 complex induction improves glycemic control and nonalcoholic fatty liver disease in murine Type 2 diabetes” (Nature Communications, 2022)
“And” between values parts separate entries of the source, which are not always exact repeats. Equal values may be shown once. “Also recorded” adds a separate entry of the source.

Legend:
T2D KKAy mice = experiment: Plasma adiponectin and FGF21 ELISA; type: in vivo, mouse; conditions: 5 mg/kg i.p. daily × 5 days, vs vehicle
Method: Plasma adiponectin and FGF21 levels were measured using Mouse Adiponectin/Acrp30 Quantikine ELISA (Bio-Techne R&D Systems, MRP300) and mouse/rat FGF21 ELISA (BioVendor R&D, RD291108200R) kits respectively, as per the manufacturer’s instructions.

[1] = system: insulin-AKT2-AS160 signaling in 3T3-F442A cells; experiment: Insulin-stimulated AKT2-AS160 signaling western blot; type: cell-based, murine; conditions: 96 h
Method: Adipocytes were washed twice in ice-cold phosphate buffer saline and lysed in RIPA buffer (150 mM NaCl, 20 mM HEPES, 1% NP-40, 5 mM EDTA, pH 7.4) with proteinase/phosphatase inhibitors (Roche). The cell lysate was further sonicated in 10 s cycle intervals 2–3 times and centrifuged at 18,407×g for 30 min at 4 °C and repeated one more time to remove the excess fat. The supernatant was collected and further estimated for protein concentration using a DC protein assay kit (Bio-Rad). Fat and liver tissues were homogenized and suspended in RIPA buffer with inhibitors and further processed in a similar fashion as described above. HUVECs were also prepared in a similar fashion except the lysates were spun only once to remove the cells debris to obtain the clear supernatant. For islets, either human or mouse islets were washed twice with phosphate buffer saline (PBS) and lysed using RIPA buffer containing protease and phosphatase inhibitors. The lysate was further clarified by freezing in liquid nitrogen for about 10 s for three cycles. The supernatant was collected from the whole lysate centrifuged at 16,260×g for 20 min at 4 °C. […] For soleus muscle, the tissue was homogenized in a Bullet Blender homogenizer (Speed-9, Time-3 mins) in 8 volumes of ice-cold muscle homogenization buffer (50 mM Tris, 25 mM NaCl, 0.2% Nonidet P-40, 5 mM EGTA, 2.5 mM EDTA, 20 mM NaF, 20 mM Na4P2O7·10H2O, 2 mM Na3VO4, pH 7.4) supplemented with protease/phosphatase inhibitor (Roche). The homogenized lysate was centrifuged two times at 18,500×g for 20 min at 4 °C and supernatant was collected for protein estimation. Protein samples were further prepared by boiling in 2X or 4X Laemmli buffer. Approximately 10–60 µg of total protein was loaded in 4–15% gradient gel (Bio-Rad) for separation and protein transfer was carried out onto the PVDF membranes (Bio-Rad). […] The images were further analyzed for band intensities using ImageJ software. […]

[2] = design: method as in PMID 3306216; conditions: cited from earlier work
SWELL1 protein = system: T1, SWELL1 protein; experiment: SWELL1 protein in skeletal muscle and liver of treated T2D mice; type: in vivo, mouse
T1 construct: from tissue; host or cells: soleus muscle of HFD-T2D mice; liver of T2D KKA^y mice
Method: (§1) Adipocytes were washed twice in ice-cold phosphate buffer saline and lysed in RIPA buffer (150 mM NaCl, 20 mM HEPES, 1% NP-40, 5 mM EDTA, pH 7.4) with proteinase/phosphatase inhibitors (Roche). The cell lysate was further sonicated in 10 s cycle intervals 2–3 times and centrifuged at 18,407×g for 30 min at 4 °C and repeated one more time to remove the excess fat. The supernatant was collected and further estimated for protein concentration using a DC protein assay kit (Bio-Rad). Fat and liver tissues were homogenized and suspended in RIPA buffer with inhibitors and further processed in a similar fashion as described above. HUVECs were also prepared in a similar fashion except the lysates were spun only once to remove the cells debris to obtain the clear supernatant. For islets, either human or mouse islets were washed twice with phosphate buffer saline (PBS) and lysed using RIPA buffer containing protease and phosphatase inhibitors. The lysate was further clarified by freezing in liquid nitrogen for about 10 s for three cycles. The supernatant was collected from the whole lysate centrifuged at 16,260×g for 20 min at 4 °C. […] The images were further analyzed for band intensities using ImageJ software. […]

[3] = system: T2, SWELL1 protein in adipose tissue; experiment: SWELL1 protein in adipose tissue of treated T2D mice; type: in vivo, mouse
T2 construct: from tissue; host or cells: eWAT of HFD-fed C57BL/6 mice; inguinal fat of KKA^y mice
Method: All compounds were dissolved in Kolliphor® EL (Sigma, #C5135).
as §1

SMILES: CCCCC1(C2CCCC2)Cc2cc(OCCCC(=O)O)c(Cl)c(Cl)c2C1=O (stereo not shown) [SN-401, 4-((2-butyl-6,7-dichloro-2-cyclopentyl-1-oxo-2,3-dihydro-1H-inden-5-yl)oxy)butanoic acid]
- serum FGF21 increase (T2D KKAy mice): 2.8 fold and 3 fold
- serum adiponectin (T2D KKAy mice): unchanged; also recorded: no differences
- insulin-stimulated levels of pAS160 ([1]; 500 nM, WT adipocytes): enhanced
- insulin-stimulated levels of pAKT2 ([1]; 10 µM preadipocytes, 500 nM adipocytes): enhanced
- effects on insulin-AKT2-AS160 signaling in SWELL1 KO adipocytes ([1]; SWELL1 KO 3T3-F442A adipocytes, 500 nM): absent
- diuretic activity [2]: minimal diuretic activity
- SWELL1 induction in skeletal muscle (SWELL1 protein; HFD-T2D mice (18 weeks HFD), 5 mg/kg i.p. 4 days): trend toward SN-401 mediated SWELL1 induction
- hepatic SWELL1 protein (SWELL1 protein; T2D KKAy mice, 5 mg/kg i.p. 5 days): does not induce
- SWELL1 expression in adipose tissue ([3]; HFD-fed T2D mice, 5 mg/kg i.p.): twofold
- SWELL1 expression in adipose tissue ([3]; KKAy T2D mice, 5 mg/kg i.p. × 5 days): threefold
